For `COc1ncc(CNc2ccccc2C(=O)Nc2cccc(C(F)(F)F)c2)cc1Br`, which melting point is on record?
The melting point was 110 to 111 °C.

With `Cc1cc(C)c2[nH]c(C(=O)NC(N)=S)cc2c1` as the compound, how does the melting point read?
The melting point was 220 to 223 °C.

For `CC(C)(C)c1cc(C2=CCSCC2)c(O)c(C(C)(C)C)c1`, which melting point is on record?
Its melting point is 115 to 119 °C.

For `CC(C)C(=O)N1C2=NCCN2C(=O)c2nc(C(C)C)[nH]c21`, which melting point is on record?
The melting point was 271 to 273 °C.

For `Cc1ccc(S(=O)(=O)N2CCC[C@H]2C(=O)N[C@@H](Cc2ccc(OCCN3CCCCCC3)cc2)C(=O)O)cc1`, which melting point is on record?
Its melting point is 105 to 107 °C.

Which melting point does the source give for `O=C(Nc1ccc(F)cn1)c1cc(-c2ccc(Cl)c(Cl)c2)nc2ccccc12` here?
Its melting point is 204 to 205 °C.

Which melting point does the source give for `CCOc1sc(C(=O)N2CCCC2)c2c1-c1oncc1C(C)(C)C2` here?
Its melting point is 123 to 126 °C.

Which melting point does the source give for `O=C(NC1CCN(C(=O)c2ccccc2)CC1)c1ccccc1Oc1ccc(Cl)cc1Cl` here?
The melting point was 63 to 66 °C.

With `CCCCc1ccc(OC(=O)c2ccc(-c3ccc(CC(CC)CCCC)cc3)cc2)c(C#N)c1` (stereo unspecified) as the compound, how does the melting point read?
The melting point was 37 °C.

Which melting point does the source give for `Cc1nc(C=O)c2n1-c1ccc(Cl)cc1C(c1ccccc1F)=NC2` here?
The melting point was 190 to 192 °C.

Which melting point does the source give for `Cc1nc2cccc(OCC=CCN3CCN(C4c5ccccc5CCc5ccccc54)CC3)c2s1` here?
The melting point was 114 °C.

Which melting point does the source give for `O=C(c1ccncc1)c1cc(-c2ccncc2)c(N2CCOCC2)s1` here?
Its melting point is 124 °C.

Which melting point does the source give for `CCOc1cc2c(cc1OCC)[C@@H]1CCCC[C@@H]1N=C2c1ccc(Cl)nc1` (racemic) here?
The melting point was 123 to 126 °C.

With `Cc1cc2c3c(c1N)c(=O)c(C(=O)O)cn3C(C)CC2` (stereo unspecified) as the compound, how does the melting point read?
The melting point was 264 to 266 °C.

Which melting point does the source give for `O=C(Nc1cccc(-c2nnn[nH]2)c1)NC1N=C(c2ccccc2F)c2cccc(Cl)c2N(CC(=O)N2CC3CCC(CC3)C2)C1=O` (stereo unspecified) here?
The melting point was 172 to 180 °C.

With `CCc1nc(NC2CCCC2)c(-c2ccccc2)c(NC2CCCC2)n1` as the compound, how does the melting point read?
The melting point was 70 to 71 °C.

With `COC[C@H]1CN(c2coc3cc(C(=O)OC)ccc23)C(=O)O1` as the compound, how does the melting point read?
The melting point was 116 °C.

Which melting point does the source give for `Cc1csc2c1-n1cccc1/C2=N/OCCBr` here?
The melting point was 92 °C.

Which melting point does the source give for `Nc1nc(-c2ccc([N+](=O)[O-])cc2)c[nH]1` here?
The melting point was 235 to 240 °C.

For `COC(=O)CC(=O)Cc1cc(F)c(F)cc1F`, which melting point is on record?
Its melting point is 37 to 39 °C.

With `COC1CN(CCC(C(=O)N(C)C)(c2ccccc2)c2ccccc2)CCC1NC(=O)c1ccccc1` (stereo unspecified) as the compound, how does the melting point read?
Its melting point is 147 °C.

With `CC(=O)c1cc2c(s1)CCC1CC(=O)N(c3ccc(Cl)cc3)N=C21` (stereo unspecified) as the compound, how does the melting point read?
The melting point was 155 to 157 °C.

Which melting point does the source give for `CC(=O)NC[C@H]1CN(c2ccc(-n3cc(-c4ccncc4)cn3)c(F)c2)C(=O)O1` here?
The melting point was 204 to 205 °C.

Which melting point does the source give for `CNC(=O)Oc1cccc(C2CCCN2Cc2ccncc2)c1` (stereo unspecified) here?
Its melting point is 92 to 105 °C.

With `C=CCc1cc(C2=NNC(=O)CC2)ccc1OCC1CO1` (stereo unspecified) as the compound, how does the melting point read?
The melting point was 92.5 to 95 °C.

For `CC(=O)c1cn(-c2cc(C)c3[nH]c(=O)ccc3c2)c(C)n1`, which melting point is on record?
The melting point was 306 to 308 °C.

For `COC(=O)c1cc(CBr)cc(C2(C#N)CC2)c1`, which melting point is on record?
The melting point was 78.3 to 79.8 °C.

With `CCc1nn(-c2cc(NC(=O)c3ccccc3)ccc2Cl)c(=O)n1Cc1ccc(-c2ccccc2S(=O)(=O)NC(=O)OC(C)(C)C)cc1F` as the compound, how does the melting point read?
The melting point was 79 to 81 °C.

Which melting point does the source give for `COc1cc(C(C)C)c2c(c1)S(=O)(=O)N(COC(=O)C(C)(C)C)C2=O` here?
The melting point was 178 to 179 °C.

For `CC1(C(=O)n2ccnc2)CC1`, which melting point is on record?
Its melting point is 34 to 35 °C.

For `Cc1ccccc1C(=O)Nc1ccc(C(=O)N2Cc3cccn3Cc3sccc32)cc1`, which melting point is on record?
The melting point was 162 to 188 °C.

Which melting point does the source give for `Cn1cc(Oc2ccc(Cl)cc2)c(=O)c(-c2cccc(C(F)(F)F)c2)c1` here?
Its melting point is 90 to 91 °C.

With `N=C(N)NCCCCN[N+](=O)[O-]` as the compound, how does the melting point read?
Its melting point is 123 to 124 °C.

For `Cc1ncsc1C(C)(O)c1cc2ccccc2o1` (stereo unspecified), which melting point is on record?
Its melting point is 139 to 140 °C.

For `Cn1ncc(C(=O)N2CCCC2)c1C(=O)Nc1ccc2nc(-c3cccnc3)nn2c1`, which melting point is on record?
Its melting point is 251 °C.

For `COc1cc2c(Nc3cccc(Cl)c3F)ncnc2cc1OC1CCN(C(=O)[C@@H](C)O)CC1`, which melting point is on record?
The melting point was 107 to 111 °C.

With `COc1cc2c(cc1OC(C)=O)CCC1C3=CC=C(OC(C)=O)C3(C)CCC21` (stereo unspecified) as the compound, how does the melting point read?
Its melting point is 191 to 194 °C.

For `CCOC(=O)ONC(=N)COc1cc(OCC(=N)NOC(=O)OCC)c2c(C)c(Cc3ccccc3)c(=O)oc2c1`, which melting point is on record?
The melting point was 87 to 92 °C.

Which melting point does the source give for `Cc1cc(N2CC=C(C(N)=O)CC2)c2c(C)c(C)n(-c3ccc(Cl)cc3Cl)c2n1` here?
The melting point was 265 to 267 °C.

For `CN(CCO)c1ccc(C=O)cc1`, which melting point is on record?
Its melting point is 72 °C.

For `COC(=O)C=Cc1cccc(NC(=O)c2cccn2C)c1`, which melting point is on record?
The melting point was 89 to 90 °C.

For `CCCCCCCCCCCCCS(=O)c1nc(NC(=O)Nc2c(C(C)C)cccc2C(C)C)n[nH]1` (stereo unspecified), which melting point is on record?
Its melting point is 178 to 181 °C.

With `O=c1[nH]c2ccc(Cl)cc2c(=O)o1` as the compound, how does the melting point read?
The melting point was 200 °C.

With `CC(C)(CNC=O)c1ccc(N)c([N+](=O)[O-])c1` as the compound, how does the melting point read?
The melting point was 113 to 115 °C.

With `COc1ccc(/C=C/C(=O)CC(=O)/C=C/c2ccc(O)c(F)c2)cc1O` as the compound, how does the melting point read?
Its melting point is 173 to 176 °C.

For `O=C(NO)c1ccc(CNC(=O)c2[nH]c(-c3ccc(O)cc3)cc2-c2ccoc2)cc1`, which melting point is on record?
Its melting point is 122 to 123 °C.

With `Cc1ccc(S(=O)(=O)OCCC2COc3ccccc3C2)cc1` (stereo unspecified) as the compound, how does the melting point read?
Its melting point is 91 to 93 °C.

For `ClCc1coc(-c2cc3ccccc3o2)n1`, which melting point is on record?
Its melting point is 133 to 134 °C.

For `CCOC(=O)C(=O)c1ccc2c(c1)CCO2`, which melting point is on record?
The melting point was 139 to 141 °C.

Which melting point does the source give for `CC12CC(=O)C3C(CCC4CC=CCC43C)C1CCC2=O` (stereo unspecified) here?
The melting point was 188 to 192 °C.

With `CCOC(=O)CCC(O)c1ccc(-c2ccccc2F)cc1` (stereo unspecified) as the compound, how does the melting point read?
Its melting point is 61 to 62 °C.

With `CC(=O)OC1CC2C3CCC4=CC(=O)CCC4(C)C3CCC2(C)C1N(C)C(=O)C(F)(F)F` (stereo unspecified) as the compound, how does the melting point read?
Its melting point is 173 to 174 °C.

With `COC(=O)c1cocc1-n1c(OC)nn(C)c1=O` as the compound, how does the melting point read?
Its melting point is 131 to 133 °C.

With `CC1(c2ccccc2Cl)C(=O)Nc2ccc(Cl)cc21` (stereo unspecified) as the compound, how does the melting point read?
Its melting point is 185 °C.

For `CCN(CC)C(=O)c1ccc2ccccc2c1-c1ccsc1`, which melting point is on record?
Its melting point is 71 to 73 °C.

Which melting point does the source give for `Cn1cc(-c2ccccc2)c(=O)c(-c2cccc(S(C)=O)c2)c1` (stereo unspecified) here?
The melting point was 161 to 164 °C.

Which melting point does the source give for `CC(C)(O)CNC(=O)c1cccc(-c2cccc3cc(Cc4cc(F)cc(Cl)c4)sc23)c1` here?
Its melting point is 123 °C.

With `CCCc1cc2nn(Cc3ccc(NC(=O)c4ccccc4S(=O)(=O)O)cc3)c(=O)n2c(C)n1` as the compound, how does the melting point read?
The melting point was 283 to 286 °C.

With `COC=C(C(=O)OC)C1(c2ccc(OC)cc2)CC=C2C=CC=C2O1` (stereo unspecified) as the compound, how does the melting point read?
The melting point was 124 °C.

For `CCc1cnc(N2CCN(C(=O)OC(C)(C)C)CC2)nc1`, which melting point is on record?
The melting point was 67 to 68 °C.

Which melting point does the source give for `CCCC1CCC(=O)C=C1c1ccc(OCC(=O)O)c(Cl)c1Cl` (stereo unspecified) here?
Its melting point is 177 to 178 °C.

Which melting point does the source give for `COC(=O)[C@@H]1COC(c2ncn3c2CN(C)C(=O)c2ccccc2-3)=N1` here?
Its melting point is 190 to 192 °C.

Which melting point does the source give for `Fc1cccc(F)c1-c1ncc(NCc2ccc(Cl)cc2)nn1` here?
The melting point was 200 to 205 °C.

For `COC(=O)c1ccc(C(O)c2cc3cc(Cl)ccc3n2S(=O)(=O)c2ccc(C(C)C)cc2)cc1` (stereo unspecified), which melting point is on record?
The melting point was 71 °C.

With `CCc1c(-c2nnc(C)s2)cc2oc(=O)c(C)c(C)c2c1OC` as the compound, how does the melting point read?
Its melting point is 201 to 203 °C.

For `CN(C)c1ccc(-c2nnc(-c3ccccc3)o2)cc1`, which melting point is on record?
The melting point was 135 to 140 °C.

Which melting point does the source give for `CCCN(Cc1ccc(-c2ccccc2-c2nc(=S)o[nH]2)cc1)c1nc(C)ncc1C(=O)OCC` here?
Its melting point is 170 to 172 °C.

With `CCCCCCCC(=O)c1ccc(CCOS(=O)(=O)c2ccc(C)cc2)cc1` as the compound, how does the melting point read?
The melting point was 59 to 60 °C.

With `O=C1CC(c2ccccc2)(c2cccs2)Oc2ccccc21` (stereo unspecified) as the compound, how does the melting point read?
Its melting point is 78 to 80 °C.

With `CCCOc1ccccc1C(=O)Nc1ccccc1C(N)=O` as the compound, how does the melting point read?
Its melting point is 149 to 150 °C.

With `NC(=O)c1sc2ccc(Br)cc2c1-c1ccccc1` as the compound, how does the melting point read?
Its melting point is 201 to 202 °C.
